What was measured:
[1] = test system: XMRV; assay: XMRV-replication in acutely infected CD4+ T lymphocytes from healthy individuals (ELISA of culture supernatants); format: cell-based; conditions: freshly isolated CD4+ T cells treated with 10, 100 and 1000 nM then infected with XMRV; 96 h post-infection; compared to untreated controls
Protocol: First, the activity of 2-5A^N1B on XMRV-replication is tested in CD4^+ T lymphocytes purified from healthy individuals. To determine the effective dose of 2-5A^N1B during acute XMRV infection, freshly isolated CD4^+ T cells are treated with three concentrations of 2-5A^N1B (10, 100 and 1000 nM) and then infected with XMRV. XMRV-replication is assessed in culture supernatants by ELISA.

[2] = test system: wild-type XMRV; assay: XMRV replication in chronically infected CD4+ cells derived from XMRV-positive individuals (ELISA of supernatants); format: cell-based; conditions: purified CD4+ T lymphocytes from XMRV-positive adults; in vitro; compared to untreated cells
Protocol: Secondly, the activity of 2-5A^N1B is tested on chronically infected cells derived from XMRV-positive individuals. XMRV-positive adults are recruited from the clinic. The antiviral response to 2-5A^N1B in vitro is assessed by ELISA in the supernatants of cultured CD4+ cells.

Substance: N^1-benzyl-3′-deoxyadenylyl-(2′-5′)-3′-deoxyadenylyl-(2′-5′)-3′-deoxyadenylyl-(2′-2″)—N^9-[(2″-hydroxy-ethoxy)-methyl]-adenine [2-5A^N1B]
- XMRV-replication [1]: significant decrease
- replication of wild-type XMRV [2]: significantly inhibits

— patent US8916535B2, “Use of 2′,5′-oligoadenylate derivative compounds” (Protea Biopharma N.V., priority 2010, dated 2014)
